Source: US20250312469A1 (CANGET BIOTEKPHARMA, priority 2024, published 2025)
Where “and” joins values, the source holds several entries; their conditions need not be identical. Identical values can stand only once.

Key:
[1] = target: T1, bovine serum albumin (BSA) (Bos taurus, UniProt P02769); assay: 3H-FL118 binding, Nanosep 3K centrifugal device; conditions: negative control protein
T1 construct: purchased EMD (Billerica, MA)
Method: Then, 5-10 μg of the FLAGR M Purification Kit (Signa)-purified Flag-USP2a and Flag-UbE2T proteins in a volume of 20-50 μL, respectively, was transferred into the sample reservoir of a 1.5 mL Nanosep 3K Centrifugal Device. In parallel, a negative control Nanosep 3K Centrifugal Devices containing 10 μg bovine serum albumin (BSA) in 50 μL volume was also set up. Then, the 3 prepared Nanosep 3K Devices were centrifuged at 10,000 rpm for 10-15 min to eliminate the solution and retain the proteins in the sample reservoir. […] Lastly, all three of the sample reservoir devices were transferred into a scintillation vial containing enough scintillation solution to cover the entire sample reservoir devices for tritium (3H) counting on the LS 6500 Scintillation System (Backman Couler™).

[2] = tested on: LNCaP, DU145 and PC-3 cells; assay: MTT cell growth/viability assay in PCa cells; assay type: cell-based, human
Method: MTT assay for determining cancer cell growth viability: The MTT assay was described previously (13). […] Briefly, ˜2500 viable cells with or without genetic manipulation were plated in each well in 96-well plates. […] MTT, a colorimetric substrate, was then added to a final concentration of 0.4 mg/mL to each well. Cells in 96-well plates were further incubated in a 5% CO2 incubator at 37° C. for 4 h, and then the medium was aspirated. The MTT metabolic product formazan was solubilized by adding 200 μl of DMSO to each well. Absorbance in the relevant wells was measured at 570 nm using an Ultra Microplate Reader (Bio-Tek Instruments).

TA97a = assay: Ames Bacterial Reverse Mutation Assay; conditions: for Background Lawn Code / Colony Counts Average / Colony Counts Replicate 1-3: TA97a
Method: (§1) The Ames Bacterial Reverse Mutation (AB™) used five bacterial tester strains (TA97a, TA98, TA100, TA1535, WP2-uvrA).
(§2) Tester strains were added to flasks containing nutrient broth and incubated at 37+2° C. overnight. The flasks were removed from the overnight incubation and the final concentration was determined (the OD was measured and determined whether growth was suitable for testing). Top agar was melted, and 2.0 mL was dispensed into heated culture tubes. The S9 mix (metabolic activation) was prepared and stored on ice. […] Each culture tube was vortexed and immediately poured onto the labeled minimal glucose agar plates. All plates were inverted and placed into a 37±1° C. incubator for 48-72 hours. The plates were counted via an automated colony counter or by hand and the background lawn was microscopically evaluated for any signs of toxicity. Genotypic control plates were prepared for each tester strain and incubated for 24-72 hours at 37±1° C.

TA98 = assay: Ames Bacterial Reverse Mutation Assay
Method: as §1, §2

DDX5 = DDX5 (Homo sapiens, UniProt P17844); assay: Immunoprecipitation/Western blot of DDX5 in Mia Paca-2 and SW620 cells; assay type: cell-based; design: endogenous in cells; Mia Paca-2 and SW620 (IP/Western)
Chain of DDX5 (P17844 whole entry): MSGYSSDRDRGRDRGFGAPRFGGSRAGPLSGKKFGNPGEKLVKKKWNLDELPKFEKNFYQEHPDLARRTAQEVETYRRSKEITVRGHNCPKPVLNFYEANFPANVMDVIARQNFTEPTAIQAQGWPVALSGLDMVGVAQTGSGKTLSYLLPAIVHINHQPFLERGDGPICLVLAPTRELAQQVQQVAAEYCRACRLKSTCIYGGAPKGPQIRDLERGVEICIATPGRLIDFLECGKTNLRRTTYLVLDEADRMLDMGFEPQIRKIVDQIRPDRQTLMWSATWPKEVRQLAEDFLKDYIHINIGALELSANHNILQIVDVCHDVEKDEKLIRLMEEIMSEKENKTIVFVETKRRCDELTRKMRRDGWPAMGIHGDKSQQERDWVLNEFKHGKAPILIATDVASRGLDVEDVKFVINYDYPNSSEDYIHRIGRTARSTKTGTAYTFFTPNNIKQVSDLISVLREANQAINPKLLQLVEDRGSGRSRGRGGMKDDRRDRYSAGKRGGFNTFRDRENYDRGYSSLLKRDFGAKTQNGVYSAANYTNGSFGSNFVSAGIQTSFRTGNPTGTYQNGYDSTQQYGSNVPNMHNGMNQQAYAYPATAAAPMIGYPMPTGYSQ
Method: Up to 10^7 cells for each time point/test were harvested with a scraper in cold PBS buffers and collected by centrifugation at 1000g×5 min and washed with cold PBS once. Cell pellets were lysed in 1 mL cold RIPA lysis buffer containing proteinase inhibitors (refer to Western blots). The cell lysates were precleared with centrifuging 14,000 rpm for 15 min. The resulting supernatants were transferred to a new 1.5 ml tube and incubated with up to 3 μg either DDX5 antibodies or normal IgG antibodies for 1 h at 4° C., followed by incubation with 20-40 μL 50% protein A/G-Agarose slurry overnight at 4° C. on a rocker platform. […]
For frozen prostate cancer tissue specimens and their adjacent non-tumor tissues (if any) obtained from Roswell Park pathology network, 30-50 mg of each tissue in a 1.5 Eppendorf tube containing 500 μL of 2×SDS lysis buffer containing Tris pH 6.8+4% SDS+10% Glycerol were homogenized through ultrasound treatment for 10-15 second per time with 3-6 times until tumor tissue was lysed. […] Proteins of interest were detected using Western Lightning ECL-Plus (Perkin Elmer, Waltham, MA) and visualized by various times (3-120 seconds) of exposure. Actin, tubulin and/or GAPDH were detected as the internal control to normalize total protein loading for each sample.

T1 sequence (P02769 25-607): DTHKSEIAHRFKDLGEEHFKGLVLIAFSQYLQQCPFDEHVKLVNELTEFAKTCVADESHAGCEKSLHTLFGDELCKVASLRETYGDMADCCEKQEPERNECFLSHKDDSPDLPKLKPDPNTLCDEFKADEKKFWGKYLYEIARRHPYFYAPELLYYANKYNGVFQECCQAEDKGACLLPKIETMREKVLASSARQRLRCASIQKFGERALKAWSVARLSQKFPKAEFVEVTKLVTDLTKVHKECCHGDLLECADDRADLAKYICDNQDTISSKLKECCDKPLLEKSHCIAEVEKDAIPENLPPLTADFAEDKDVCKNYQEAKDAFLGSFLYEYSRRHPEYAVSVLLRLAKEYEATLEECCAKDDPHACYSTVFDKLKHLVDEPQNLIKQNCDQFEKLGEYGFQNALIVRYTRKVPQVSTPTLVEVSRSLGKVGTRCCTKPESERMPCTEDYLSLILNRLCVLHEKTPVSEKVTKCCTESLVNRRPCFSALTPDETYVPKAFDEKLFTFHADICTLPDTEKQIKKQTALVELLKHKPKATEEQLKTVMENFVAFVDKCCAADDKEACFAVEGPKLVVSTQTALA

## CCC1(O)C(=O)OCc2c1cc1n(c2=O)Cc2cc3cc4c(cc3nc2-1)OCO4 (stereo not shown) [FL118]
[1]
  3H CPM counts in retained parts: 4,230 ± 370 CPM
[2]; 72h MTT
  cell growth inhibition in DDX5 KO DU145 cells: significantly increased resistance to FL118 treatment
  cell growth inhibition, DU145 vs LNCaP and PC-3: higher sensitivity to FL118-induced cell growth inhibition
[2]; LNCaP, DU145, 72 h
  cell growth inhibition with USP2a overexpression: enhances FL 118-mediated inhibition of PCa cell growth
TA97a
  bacterial strain mutation: does not induce
TA97a; +/− S9
  mean revertant colonies over negative control: less than 2 fold
TA97a; 0.010 μM +S9
  Background Lawn Code: 1
  Colony Counts Average: 141
  Colony Counts Replicate 1-3: 123 and 140 and 161
TA97a; 0.010 μM −S9
  Background Lawn Code: 1
  Colony Counts Average: 101
  Colony Counts Replicate 1-3: 108 and 105 and 90
TA97a; 0.10 μM +S9
  Background Lawn Code: 1
  Colony Counts Average: 172
  Colony Counts Replicate 1-3: 189 and 150 and 178
TA97a; 0.10 μM −S9
  Background Lawn Code: 1
  Colony Counts Average: 95
  Colony Counts Replicate 1-3: 116 and 87 and 82
TA97a; 1.0 μM +S9
  Background Lawn Code: 1
  Colony Counts Average: 142
  Colony Counts Replicate 1-3: 140 and 146 and 139
TA97a; 1.0 μM −S9
  Background Lawn Code: 1
  Colony Counts Average: 119
  Colony Counts Replicate 1-3: 111 and 113 and 134
TA98
  bacterial strain mutation: does not induce
TA98; +/− S9
  mean revertant colonies over negative control: less than 2 fold
TA98; TA98, 0.010 μM +S9
  Background Lawn Code: 1
  Colony Counts Average: 38
  Colony Counts Replicate 1-3: 32 and 37 and 45
TA98; TA98, 0.010 μM −S9
  Background Lawn Code: 1
  Colony Counts Average: 38
  Colony Counts Replicate 1-3: 29 and 53 and 32
TA98; TA98, 0.10 μM +S9
  Background Lawn Code: 1
  Colony Counts Average: 44
  Colony Counts Replicate 1-3: 45 and 41 and 46
TA98; TA98, 0.10 μM −S9
  Background Lawn Code: 1
  Colony Counts Average: 24
  Colony Counts Replicate 1-3: 36 and 20 and 15
TA98; TA98, 1.0 μM +S9
  Background Lawn Code: 1
  Colony Counts Average: 44
  Colony Counts Replicate 1-3: 35 and 45 and 52
TA98; TA98, 1.0 μM −S9
  Background Lawn Code: 1
  Colony Counts Average: 23
  Colony Counts Replicate 1-3: 24 and 26 and 19
DDX5; 6h
  DDX5 phosphorylation on tyrosine: eliminates DDX5 phosphorylation
DDX5; 24h
  DDX5 protein: inhibits DDX5 proteins
